Assay [1] has as its target T1, EGF-R wt (Homo sapiens, UniProt P00533).
T1 construct: purchased ProQinase GmbH
Nature of the assay: EGFR-wt protein kinase assay (33PanQinase), single concentration. It counts as biochemical. Particulars: 0.5 μM (5 × 10^−7 M), singlicate, % of control activity; for remaining activity at 0.5 µM: read-out: Residual activity under 0.5 μM drug concentration (%) EGF-R wt. On the procedure:
(§1) The inhibitory profile of 16 compounds was determined using two protein kinases. The compounds were tested at a concentration of 5 × 1 0^−7 M, in singlicate. The compounds were solved and diluted to 5 × 10^−5 M stock solutions in 100% DMSO according to the customer-filled CSF. 10 μL of each of the stock solutions were transferred into […] of a 96-well, Column 1 and 2 of the plate were filled with 10 μL100% DMSO. The plate is in the following referred to as “copy plate”. In the process, 90 μL H2O were added to each well of the copy plate. To minimize potential compound precipitation, the H2O was added to each well only a few minutes before the transfer of the compound solutions into the assay plates. The plate was shaken thoroughly, resulting in a “compound dilution plate” with a compound concentration of 5 × 10^−6 M/10% DMSO. This plate was used for the transfer of 5 μL compound solution into the assay plates. The final volume of the assay was 50 μL. All compounds were tested at 5 × 1 0^−7 M in singlicate. The final DMSO concentration in the reaction cocktails was 1% in all cases. The compound dilution plate was disposed.
(§2) A radiometric protein kinase assay (33PanQinase® Activity Assay) was used for measuring the kinase activity of the two protein kinases. All kinase assays were performed in 96-well FlashPlatesTM from PerkinElmer (Boston, MA, USA) in a 50 μL reaction volume. The reaction cocktail was pipetted in 4 steps in the following order: 20 μL of assay buffer, 5 μL of ATP solution (in H2O), 5 μL of test compound (in 10% DMSO), 20 μL enzyme/subtrate mix. The assay for both protein kinases contained 70 mM HEPES-NaOH pH 7.5, 3 mM MgCl2, 3 mM MnCl2, 3 μM Na-orthovanadate, 1.2 mM DTT, ATP. The assay for ERBB2 additionally contained 50 μg/mLPEG20000. The reaction cocktails were incubated at 30 °C for 60 min. The reaction was stopped with 50 μL of 2% (v/v) H3PO4, plates were aspirated and washed two times with 200 μL 0.9% (w/v) NaCl. Incorporation of 33Pi was determined with a microplate scintillation counter (Microbeta, Wallac). All assays were performed with a BeckmanCoulter/SAGIAN™Core System. The median value of the counts in column 1 (n = 8) of each assay plate was defined as “low control”. This value reflects unspecific binding of radioactivity to the plate in the absence of a protein kinase but in the presence of the substrate. The median value of the counts in column 2 of each assay plate (n = 8) was taken as the “high control”. As part of the data evaluation the low control value from a particular plate was subtracted from the high control value as well as from all 80 “compound values” of the corresponding plate. The residual activity (in %) for each well of a particular plate was calculated by using the following formula: Res. Activity (%) = 100 × [(cpm of compound – low control)/(high control − low control)]

The target in assay [2] is T2, HER2 (Homo sapiens, UniProt P04626).
T2 construct: purchased ProQinase GmbH
Nature of the assay: HER2 protein kinase assay (33PanQinase), single concentration. The format is biochemical. Particulars: 0.5 μM (5 × 10^−7 M), singlicate, % of control activity; for remaining activity at 0.5 µM: read-out: Residual activity under 0.5 μM drug concentration (%) HER2. On the procedure:
as §1, §2

For the compound `COc1cc2c(cc1Nc1ncc(C#N)c(Nc3ccc(OCc4ccccn4)cc3)n1)N(C(=O)/C=C/CN(C)C)CC21CC1` [Compound B1, (2E)-4-{6′-[(5-cyano-4-{[4-(pyridin-2-ylmethoxy)phenyl]amino}pyrimidin-2-yl)amino]-5′-methoxyspiro[cyclopropane-1,3′-indole]-1′-yl}-1-(dimethylamino)-4-oxobut-2-en-2-yl], the figures for the remaining activity at 0.5 µM in assay [1] and in assay [2] were 92% and 103%, respectively.
Taken in the same sequence, the figures for `COc1cc2c(cc1Nc1ncc(C#N)c(Nc3ccc(OCc4ccccc4)c(Cl)c3)n1)N(C(=O)/C=C/CN(C)C)CC1(CC1)O2` [Compound C3, (2E)-4-{6-[(4-{[4-(benzyloxy)-3-chlorophenyl]amino}-5-cyanopyrimidin-2-yl)amino]-7-methoxyspiro[1,4-benzoxazine-2,1′-cyclopropane]-4-yl}-1-(dimethylamino)-4-oxobut-2-en-2-yl] were 79% and 111%.
Taken in the same sequence, the figures for `COc1cc2c(cc1Nc1ncc(C#N)c(Nc3ccc(OCc4ccccn4)c(Cl)c3)n1)N(C(=O)/C=C/CN(C)C)CC21CC1` [Compound B2, (2E)-4-{6′-[(4-{[3-chloro-4-(pyridin-2-ylmethoxy)phenyl]amino}-5-cyanopyrimidin-2-yl)amino]-5′-methoxyspiro[cyclopropane-1,3′-indole]-1′-yl}-1-(dimethylamino)-4-oxobut-2-en-2-yl] were 97% and 100%.
Regarding `COc1cc2c(cc1Nc1ncc(C#N)c(Nc3ccc(OCc4ccccn4)c(Cl)c3)n1)N(C(=O)/C=C/CN(C)C)CC1(CC1)O2` [Compound C2, (2E)-4-{6-[(4-{[3-chloro-4-(pyridin-2-ylmethoxy)phenyl]amino}-5-cyanopyrimidin-2-yl)amino]-7-methoxyspiro[1,4-benzoxazine-2,1′-cyclopropane]-4-yl}-1-(dimethylamino)-4-oxobut-2-en-2-yl], the values for the remaining activity at 0.5 µM in assay [1] and in assay [2] were 76% and 108%, respectively.
Regarding `CCOc1cc2ncc(C#N)c(Nc3ccc(OCc4ccccn4)c(Cl)c3)c2cc1NC(=O)/C=C/CN(C)C` [Neratinib, reference compound], the remaining activity at 0.5 µM in assay [2] came to 6%.
For the compound `C=CC(=O)N1CC2(CC2)c2cc(OC)c(Nc3ncc(C#N)c(Nc4ccc(OCc5ccccn5)cc4)n3)cc21` [Compound B4, 3-{6′-[(5-cyano-4-{[4-(pyridin-2-ylmethoxy)phenyl]amino}pyrimidin-2-yl)amino]-5′-methoxyspiro [cyclopropane-1, 3′-indole]-1′-yl}-3-oxoprop-1-en-2-yl], the remaining activity at 0.5 µM in assay [1] worked out at 87%; in assay [2] it was 99%.
On the same counts, the results for `COc1cc2c(cc1Nc1ncc(C#N)c(Nc3ccc(OCc4ccccc4)c(Cl)c3)n1)N(C(=O)/C=C/CN(C)C)CC21CC1` [Compound B3, 4-{[4-(benzyloxy)-3-chlorophenyl]amino}-2-({1′-[(2E)-4-(dimethylamino)but-2-enoyl]-5′-methoxy-1′,2′-dihydrospiro[cyclopropane-1,3′-indole]-6′-yl}amino)pyrimidine-5-carbonitrile] are 95% and 102%.
In the case of `C=CC(=O)N1CC2(CC2)c2cc(OC)c(Nc3ncc(C#N)c(Nc4cnn(Cc5ccccn5)c4)n3)cc21` [Compound B7, 3-{6′-[(5-cyano-4-{[1-(pyridin-2-ylmethyl)pyrazol-4-yl]amino}pyrimidin-2-yl)amino]-5′-methoxyspiro[cyclopropane-1,3′-indole]-1′-yl}-3-oxoprop-1-en-2-yl], the remaining activity at 0.5 µM in assay [1] amounted to 89%; in assay [2] it was 135%.
As to `C=CC(=O)N1CC2(CCN(C)CC2)c2cc(OC)c(Nc3ncc(C#N)c(Nc4cnn(Cc5ccccn5)c4)n3)cc21` [Compound A4, 2-{[5-methoxy-1′-methyl-1-(prop-2-enoyl)-1,2-dihydrospiro[indole-3,4′ -piperidine]-6-yl]amino}-4-{[1-(pyridin-2-ylmethyl)-1H-pyrazol-4-yl]amino}pyrimidine-5-carbonitrile], in assay [1], the “Residual activity under 0.5 μM drug concentration (%) EGF-R wt” value was 27% and the remaining activity at 0.5 µM was in the range of 20 to 60%. Further, the remaining activity at 0.5 µM in assay [2] is 34%.
Turning to `COc1cc2c(cc1Nc1ncc(C#N)c(Nc3ccc(OCc4ccccn4)cc3)n1)N(C(=O)/C=C/CN(C)C)CC1(CC1)O2` [Compound C1, (2E)-4-{6-[(5-cyano-4-{[4-(pyridin-2-ylmethoxy)phenyl]amino}pyrimidin-2-yl)amino]-7-methoxyspiro[1,4-benzoxazine-2,1′-cyclopropane]-4-yl}-1-(dimethylamino)-4-oxobut-2-en-2-yl], the remaining activity at 0.5 µM in assay [1] was found to be 86%; in assay [2], 100%.
Turning to `COc1cc2c(cc1Nc1ncc(C#N)c(Nc3cnn(Cc4ccccn4)c3)n1)N(C(=O)/C=C/CN(C)C)CC1(CC1)O2` [Compound C4, (2E)-4-{6-[(5-cyano-4-{[1-(pyridin-2-ylmethyl)pyrazol-4-yl]amino}pyrimidin-2-yl)amino]-7-methoxyspiro[1,4-benzoxazine-2,1′-cyclopropane]-4-yl}-1-(dimethylamino)-4-oxobut-2-en-2-yl], the remaining activity at 0.5 µM in assay [1] is 85%; in assay [2], 100%.
Turning to “(2E)-4-{6′-[(5-cyano-4-{[1-(pyridin-2-ylmethyl)pyrazol-4-yl]amino} pyrimidin-2-yl)amino]-5′-methoxyspiro[cyclopropane-1,3′-indole]-1′-yl}-1-(dimethylamino)-4-oxobut-2-en-2-yl trifluoroacetate [Compound B6]”, in assay [1], the “Residual activity under 0.5 μM drug concentration (%) EGF-R wt” value came out at 94%. Further, in assay [2], the “Residual activity under 0.5 μM drug concentration (%) HER2” value amounted to 113%.
As for `C=CC(=O)N1CC2(CCN(C)CC2)c2cc(OC)c(Nc3ncc(C#N)c(Nc4ccc(OCc5ccccc5)c(Cl)c4)n3)cc21` [Compound A3, 4-{[4-(benzyloxy)-3-chlorophenyl]amino}-2-{[5-methoxy-1′-methyl-1-(prop-2-enoyl)-1,2-dihydrospiro[indole-3,4′-piperidine]-6-yl]amino}pyrimidine-5-carbonitrile], the values for the remaining activity at 0.5 µM in assay [1] and in assay [2] were 19% and 12%, respectively.

The record behind these values is paper PMC6691816, “Discovery of aminopyridine-containing spiro derivatives as EGFR mutations inhibitors” (Journal of Enzyme Inhibition and Medicinal Chemistry, 2019).
